Series [1] can be described thus: Solubility of terephthalic acid salts in water. In kind it is physicochemical. As to the method: 2.99 g (0.018 mol) of terephthalic acid (in a form of powder, manufactured by Sigma-Aldrich Japan; hereinafter, unless otherwise specified, reagents used were ones manufactured by Sigma-Aldrich Japan) and 0.036 mol of potassium hydroxide (in a form of granule) were put in a 50 mL-glass beaker. Distilled water was filled to obtain a volume of about 15 mL. The resulting mixture was covered with aluminum foil as a lid, heated at 50° C. for 60 minutes while stirred by a hot stirrer (manufactured by AS ONE Corporation), and allowed to cool to 30° C. After stirring at 30° C. for 120 minutes or more and confirming the precipitate remained in the solution, 1 mL of the solution was collected and subjected to centrifugation using a high speed micro centrifuge (manufactured by Tomy Seiko Co., Ltd.) (30° C., 14000 rpm (17800 g), 30 seconds) to collect the supernatant.
The concentration of terephthalic acid in this supernatant was measured and regarded as the solubility of dipotassium terephthalate. With regard to the measurement of the concentration of terephthalic acid, the sample was diluted 16,000-fold with 2.5% aqueous acetonitrile solution and analyzed in separation conditions of Table 1 using high performance liquid chromatography (Waters Corporation, LCT Premier XE). Thereafter, the concentration was calculated on the basis of a ratio of the area of terephthalic acid peaks using aqueous terephthalic acid solution with a known concentration as a control.

For series [2], the system named is Escherichia coli M7032 (pUXPEaLT_tpaA_tpaK_Pm_fucO_I7L_aldA) strain. Kind of series: Decomposition of ethylene glycol during production of TPA-DHD. The series is classed as cell-based. The note with it: raw material dipotassium terephthalate with ethylene glycol, final concentration 72 mM.
In series [3] the test system is Escherichia coli K-12 M7032 strain. The experiment in a line: Decomposition of ethylene glycol during production of TPA-DHD, control strain. In kind it is cell-based. Particulars: raw material dipotassium terephthalate with ethylene glycol, final concentration 72 mM. As to the method:
Subsequently, in the same manner as described in Example 1, Escherichia coli M7032 (pUXPEaLT_tpaA_tpaK_Pm_fucO_I7L_aldA) strain and Escherichia coli K-12 M7032 strain which serves as a control were cultured in a mini jar fermentor. Concurrently with administration of dipotassium terephthalate which serves as a raw material, 0.278 ml (final concentration 72 mM) of ethylene glycol was placed.
Sampling was carried out 48 hours after the start of main culture. Each of the samples was subjected to analysis in conditions shown in Table 1 by an LC-TOF type mass spectrometer (Waters Corporation, LCT Premier XE). Identification of terephthalic acid was carried out with a combination of retention time of high performance liquid chromatography and an accurate mass value from the mass spectrometer, comparing to a standard sample of terephthalic acid. Among substances appeared as terephthalic acid decreased, TPA-DHD was identified on the basis of a predicted accurate mass value of TPA-DID. Further, quantification of TPA-DHD was carried out on the basis of a calibration curve prepared from an amount of terephthalic acid decreased and an increase in the peak area of TPA-DHD. […]

We go through three compounds from patent US9394549B2, “Method for producing useful chemical substance from terephthalic acid potassium salt” (GENARIS, INC., priority 2012, dated 2016).

Molecules are shown by their SMILES. Like-named read-outs stand apart in the source and are kept apart here.

Regarding `N.O=C([O-])c1ccc(C(=O)O)cc1.[Na+]` [1-sodium 4-ammonium terephthalate, reference compound], in series [1], the solubility is 612 mM and the “solubility in water at 30° C.” value is “about 0.61 M”.
As for `N.N.O=C(O)c1ccc(C(=O)O)cc1` [Diammonium terephthalate, diammonium terephthalate, reference compound], the solubility in series [1] (30 °C, water, thermodynamic from solid, in water at 30° C., rounded values of the summary, read-out: solubility in water at 30° C.) was approximately 510 mM; in series [1] (30 °C, water, thermodynamic from solid, in water, 30° C., read-out: Solubility), 512 mM.
With `O=C(O)C1=CC(O)C(O)(C(=O)O)C=C1` (stereo not drawn) [TPA-DHD, terephthalate 1,2-cis-dihydrodiol], the “amount of TPA-DHD produced 48 hours after the start of the culture” value was found to be 10.5 g/L in series [2] and 11.1 g/L in series [3].

The term solubility denotes the dissolved amount per volume that the medium holds.
